Measurements from patent US20230029496A1, “AMINO ACID ALTERNATIVE CURING SYSTEM” (THE TEXAS A&M UNIVERSITY SYSTEM, priority 2019, published 2023).
Several values for one entry are separate records, joined by “and”; a condition that tells them apart may be missing. Identical values can stand only once. Marks after values point to notes of the source that are not given here.

Key:
[1] = pH after immersion, pre- and post-rigor pork semimembranosus muscle (Example 13); assay type: physicochemical
[2] = system: Nitric Oxide Synthase (NOS) system; experiment: Cure efficiency (NO-heme, total heme, nitrosylation) of cooked pre- and post-rigor pork semimembranosus muscle (Example 13); assay type: biochemical
Method: Cooked meat samples were analyzed for the degree of nitrosylation through residual nitrite from the Pearson and Tauber method from the modified Hornsey's procedure for analyzing small samples [103] from the supernatant and pellet. 2 mL or 2 g of the samples were treated with acetone to measure NO-heme concentration and for total heme concentration, 2 mL or 2 g of the samples were treated with acetone and hydrochloric acid. Both samples were measured using a spectrophotometer (2100 Series Spectrophotometer, Unico, Dayton, N.J.) and a 1 cm quartz cuvette. NO-heme concentration (ppm acid hematin) was read at 540 nm, and total heme concentration (ppm acid hematin) was determined at 640 nm to determine nitrosylation as the indication of the effectiveness of L-arginine in curing the samples. This procedure measured the conversion levels of myoglobin to nitrosohemochromagen, the cured meat color, and the amount of conversion as compared to the total pigmentation within the sample.
Curing efficiency or nitrosylation is calculated as the percentage conversion of NO-heme to total heme. Cure efficiency is the percentage of total pigment converted to nitroso pigment and indicates the degree of cured color fading. Cured meat pigment is extracted in a solution of 80% acetone and 20% water that extracts cured pigment heme. Total heme pigments are extracted using an acidified acetone solution that extracts heme from all heme proteins as first used by Hornsey. NO-heme concentration (as ppm acid hematin)=sample A540×290 determines the specific cure color pink from the rest of the heme pigmentation of the sample. Total heme concentration (ppm acid hematin)=sample A640×680 determines the total heme pigmentation of the sample. Cure efficiency (%)=(ppm of nitrosoheme […]ppm of total pigment)×100 and indicates how much of the product is cured and holds the cured pink stability once cooked.

[3] = 2 mM L-arginine, cooked post rigor pellet
[4] = 2 mM L-arginine, cooked post rigor supernatant
[5] = 2 mM L-arginine, cooked pre-rigor pellet
[6] = 2 mM L-arginine, cooked pre-rigor supernatant
[7] = 4 mM L-arginine, cooked post rigor pellet
[8] = 4 mM L-arginine, cooked post rigor supernatant
[9] = 4 mM L-arginine, cooked pre-rigor pellet
[10] = 4 mM L-arginine, cooked pre-rigor supernatant
[11] = 8 mM L-arginine, cooked post rigor pellet
[12] = 8 mM L-arginine, cooked post rigor supernatant
[13] = 8 mM L-arginine, cooked pre-rigor pellet
[14] = 8 mM L-arginine, cooked pre-rigor supernatant
[15] = 16 mM L-arginine, cooked post rigor pellet
[16] = 16 mM L-arginine, cooked post rigor supernatant
[17] = 16 mM L-arginine, cooked pre-rigor pellet
[18] = 16 mM L-arginine, cooked pre-rigor supernatant
[19] = 32 mM L-arginine, cooked post rigor pellet
[20] = 32 mM L-arginine, cooked post rigor supernatant
[21] = 32 mM L-arginine, cooked pre-rigor pellet
[22] = 32 mM L-arginine, cooked pre-rigor supernatant

N=C(N)NCCC[C@H](N)C(=O)O [L-arginine]
pH after 2 hours of sample immersion ([1]; 2 mM L-arginine, post rigor cooked): 5.77^a
pH after 2 hours of sample immersion ([1]; 2 mM L-arginine, post rigor raw): 5.52^a
pH after 2 hours of sample immersion ([1]; 2 mM L-arginine, pre-rigor cooked): 6.03^a
pH after 2 hours of sample immersion ([1]; 2 mM L-arginine, pre-rigor raw): 5.94^a
pH after 2 hours of sample immersion ([1]; 4 mM L-arginine, post rigor cooked): 5.75^a
pH after 2 hours of sample immersion ([1]; 4 mM L-arginine, post rigor raw): 5.52^a
pH after 2 hours of sample immersion ([1]; 4 mM L-arginine, pre-rigor cooked): 6.01^a
pH after 2 hours of sample immersion ([1]; 4 mM L-arginine, pre-rigor raw): 6.04^a
pH after 2 hours of sample immersion ([1]; 8 mM L-arginine, post rigor cooked): 5.66^a
pH after 2 hours of sample immersion ([1]; 8 mM L-arginine, post rigor raw): 5.53^a
pH after 2 hours of sample immersion ([1]; 8 mM L-arginine, pre-rigor cooked): 5.99^a
pH after 2 hours of sample immersion ([1]; 8 mM L-arginine, pre-rigor raw): 5.93^a
pH after 2 hours of sample immersion ([1]; 16 mM L-arginine, post rigor cooked): 5.75^a
pH after 2 hours of sample immersion ([1]; 16 mM L-arginine, post rigor raw): 5.53^a
pH after 2 hours of sample immersion ([1]; 16 mM L-arginine, pre-rigor cooked): 6.00^a
pH after 2 hours of sample immersion ([1]; 16 mM L-arginine, pre-rigor raw): 5.91^a
pH after 2 hours of sample immersion ([1]; 32 mM L-arginine, post rigor cooked): 5.76^a
pH after 2 hours of sample immersion ([1]; 32 mM L-arginine, post rigor raw): 5.56^a
pH after 2 hours of sample immersion ([1]; 32 mM L-arginine, pre-rigor cooked): 5.97^a
pH after 2 hours of sample immersion ([1]; 32 mM L-arginine, pre-rigor raw): 5.93^a
sample pH after the immersion phase ([1]; range over pre- and post-rigor, raw and cooked, 0-32 mM): 5.51-6.04
NO-Heme [2, 3]: 16.10^b ppm
Nitrosylation [2, 3]: 31.22^a %
Total Heme [2, 3]: 62.56^a ppm
NO-Heme [2, 4]: 23.76^a ppm
Nitrosylation [2, 4]: 61.38^a %
Total Heme [2, 4]: 64.43^a ppm
NO-Heme [2, 5]: 19.02^a ppm
Nitrosylation [2, 5]: 52.09^a %
Total Heme [2, 5]: 61.48 ppm and 61.48^ab ppm
NO-Heme [2, 6]: 26.02 ppm and 26.02^ab ppm
Nitrosylation [2, 6]: 60.23^a %
Total Heme [2, 6]: 50.43^a ppm
NO-Heme [2, 7]: 19.72 ppm and 19.72^ab ppm
Nitrosylation [2, 7]: 35.19^a %
Total Heme [2, 7]: 67.72^a ppm
NO-Heme [2, 8]: 22.81^a ppm
Nitrosylation [2, 8]: 55.90^a %
Total Heme [2, 8]: 73.33^a ppm
NO-Heme [2, 9]: 18.82^a ppm
Nitrosylation [2, 9]: 49.31^a %
Total Heme [2, 9]: 52.07 ppm and 52.07^ab ppm
NO-Heme [2, 10]: 28.17 ppm and 28.17^ab ppm
Nitrosylation [2, 10]: 70.03^a %
Total Heme [2, 10]: 40.86^a ppm
NO-Heme [2, 11]: 18.34 ppm and 18.34^ab ppm
Nitrosylation [2, 11]: 35.53^a %
Total Heme [2, 11]: 63.58^a ppm
NO-Heme [2, 12]: 25.98^a ppm
Nitrosylation [2, 12]: 79.27^a %
Total Heme [2, 12]: 62.90^a ppm
NO-Heme [2, 13]: 16.38^a ppm
Nitrosylation [2, 13]: 31.43^a %
Total Heme [2, 13]: 80.07 ppm and 80.07^ab ppm
NO-Heme [2, 14]: 32.98^a ppm
Nitrosylation [2, 14]: 75.71^a %
Total Heme [2, 14]: 45.11^a ppm
NO-Heme [2, 15]: 18.42 ppm and 18.42^ab ppm
Nitrosylation [2, 15]: 62.80^a %
Total Heme [2, 15]: 51.68^a ppm
NO-Heme [2, 16]: 20.54^a ppm
Nitrosylation [2, 16]: 52.33^a %
Total Heme [2, 16]: 54.46^a ppm
NO-Heme [2, 17]: 26.56^a ppm
Nitrosylation [2, 17]: 55.29^a %
Total Heme [2, 17]: 123.31 ppm and 123.31^a ppm
NO-Heme [2, 18]: 22.45 ppm and 22.45^ab ppm
Nitrosylation [2, 18]: 55.02^a %
Total Heme [2, 18]: 42.05^a ppm
NO-Heme [2, 19]: 27.33 ppm and 27.33^a ppm
Nitrosylation [2, 19]: 34.51^a %
Total Heme [2, 19]: 85.11^a ppm
NO-Heme [2, 20]: 25.50^a ppm
Nitrosylation [2, 20]: 104.27^a %
Total Heme [2, 20]: 59.73^a ppm
NO-Heme [2, 21]: 33.37^a ppm
Nitrosylation [2, 21]: 86.11^a %
Total Heme [2, 21]: 53.72 ppm and 53.72^ab ppm
NO-Heme [2, 22]: 27.67^ab ppm
Nitrosylation [2, 22]: 66.20^a %
Total Heme [2, 22]: 44.94^a ppm
